Source: patent publication US7592341B2, “Peptide-enhanced corneal drug delivery” (Kansas State University Research Foundation, priority 2004, dated 2009)
No end group written: not given here.

What was measured:
MDCK monolayers = assay: Methotrexate uptake in epithelial monolayer experiments; assay type: cell-based, canine; conditions: peptide washout experiments in culture; LC-ESI-MS
Description: This example followed the procedures of the monolayer experiments of Example 1 in order to test the uptake of fluorescently labeled methotrexate (MTX) and MTX that was not fluorescently labeled. Enhanced uptake of the fluorescently labeld MTX was not observed during co-incubation due to adverse interactions between the peptide and the modified drugs. However, in peptide washout experiments in culture, MTX uptake increased by ten-fold. Measurement of the unlabeled MTX was performed using LC-ESI-MS and a standard MTX amount for calibration and comparison purposes.

corneal epithelium [1] = assay: Electron microscopy with ruthenium red of treated corneas (tight junction opening, morphology); conditions: 30 minute preincubation samples; for corneal epithelial morphology by EM: 200 μM peptide or 0.01% BAC
Description: In order to document the in situ opening of the tight junctions, peptide treated corneas were chemically fixed at the end of a dye transport assay for morphology studies. The control and test samples were treated with the dye ruthenium red, which binds to the plasma membrane of epithelium and cannot pass the tight junctions. […] As a control, the ophthalmic preservative benzalkonium chloride (BAC) was used in place of the peptide. […] NC-1059 (Seq. ID No. 1) was compared to BAC in a paired cornea experiment: 0.01% BAC solution and 200 μM ml of the peptide were incubated individually for either 15 or 30 minutes in the test chambers. The solutions were washed. 5 mL of BSS plus was added to both chambers and then spiked with 2 mL of CF. Sample aliquots were taken (100 μL) every half hour from the endothelial chamber for 6 hours. […] At the end of the experiment treated corneas were tested for residual internalized CF and then fixed for morphological analysis by EM. […] An EM study using ruthenium red to highlight the plasma membrane and grid staining to increase the contrast was performed on the 30 minute samples used to generate FIG. 5.

rabbit cornea = assay: Ex vivo transcorneal dye transport and corneal dye uptake in isolated rabbit cornea (perfusion chamber); conditions: for residual internalized CF in cornea: washed, 200 μM peptide or 0.01% BAC, FIG. 6
Description: For rabbit in vitro studies, corneas were obtained from eyes of New Zealand White rabbits weighing 5.0 to 5.5 kg, which were anesthetized and then killed by intracardiac injection of sodium pentobarbital (97.2 mg/kg). […] For a given pair of eyes, the epithelium was scraped from one of the corneas with a scalpel blade; on the opposite eye the epithelium was left intact. […] This method prevented trauma to the corneal epithelium and distortion of the corneal curvature during clamping in the acrylic-block perfusion system. The scleral rim serves as a gasket and permits the cornea to be suspended within the corneal ring.
The retina and pigment epithelium were removed and the cornea was clamped in the corneal holder. The exposed surface area for diffusion was 1.2 cm^2 for the cornea and 1.1 cm^2 for the sclera. The perfusion chamber was made of acrylic and placed in a water jacket to maintain the temperature of the cornea and perfusion medium at 35° C. A volume of 6 mL of balanced salt solution with oxidized glutathione (BBS Plus, Alcon Laboratories Inc, Fort Worth, Tex.) at pH 7.4 was placed in the endothelial chamber. The peptides were added to the balanced salt solution with oxidized glutathione at a concentration of 1 mM. Six milliliters of each solution was added to the epithelial chamber. […] Serial 0.5-mL samples were removed from each reservoir at 30-minute intervals, and after three hours at the termination of the permeability study, the remaining 3 mL was removed. […] The corneal permeability (P) was obtained by taking into account the volume (6 mL) of the endothelial chamber and the corneal area (square centimeters), as follows: P=kin endothelial chamber volume/corneal area.
Numerous paired sets of experiments were conducted using each of the two dyes. The paired experiments included a control cornea obtained from one of the eyes of a rabbit, which was bathed in the BSS+ buffer and given 100 μL of water at the start of the experiment. In the test cornea, from the second eye of the same rabbit, 100 μL of peptide was added at time zero to produce a 150-200 μM peptide solution in BSS+. Both the water and the peptide additions were made on the apical surface of the cornea. After 20-30 minutes of incubation, dye was added to the apical bathing solution (final concentration 300 μM of dye) and allowed to remain in contact with the cornea for 6 hours. […] At 30-minute intervals, 75-100 μL aliquots were removed from the endothelial bathing chamber and the concentration of the transported dye determined. In some later experiments the corneal surfaces were rinsed 2-3 times with fresh BSS+ (wash out) to remove unbound peptide prior to the addition of the dye. The peptide is added to the apical bathing chamber.

corneal epithelium [2] = conditions: known; cited from earlier work
[3] = system: small intestine epithelia; conditions: reduction in epithelial resistance; cited from earlier work
corneal epithelium [4] = conditions: rabbit, in vivo
Description: A series of in vivo corneal epithelial permeability experiments in unanaesthetized rabbits was also conducted. NC-1059 (Seq. ID No. 1) was prepared in BSS (200 μM) and placed inside the lower eyelid of one eye with the other eye receiving an equal amount of BSS alone. The solutions were held in place for 3 minutes and then washed with BSS. After the indicated incubation periods, both eyes received 300 μM NaF or CF and the dye was kept in place for 3 or 5 minutes. After the contact period the eyes were washed with 40 mL of BSS solution. Total uptake was measured for both the control and treated eyes with an OcuMetrics, Ocular Fluorophotometer. The fold changes between the peptide treated and untreated eyes were calculated (FIG. 7). […] It would also appear that adding the dye immediately after peptide exposure results in the highest permeation. […] The reduced uptake at the 6-hour time point documents the transient effects of the peptide in vivo. This transient effect has been observed under all assay conditions: in vitro, in situ and in vivo. In the final column, the fold increase is only 1.7±1.1 (n=2). Viewed alone, this fold increase is some-what misleading because the net amount of more hydrophobic NaF taken up in eyes is higher (7.8-fold) than with the CF dye.

Compound: CN(Cc1cnc2nc(N)nc(N)c2n1)c1ccc(C(=O)N[C@@H](CCC(=O)O)C(=O)O)cc1 [MTX, methotrexate]
- increase of MTX uptake (MDCK monolayers): ten-fold

Compound: benzalkonium chloride [BAC]
- depth of ruthenium red staining of multilayered corneal epithelium (corneal epithelium [1]): 4-5 layers
- corneal epithelial morphology by EM (corneal epithelium [1]): altered morphology with some cells appearing swollen
- induced transport rates for CF in paired corneas, BAC vs NC-1059 (rabbit cornea; 15 min preincubation, FIG. 5A): appear identical
- residual internalized CF in cornea (rabbit cornea; 15 min preincubation): 27.8 µg
- residual internalized CF in cornea (rabbit cornea; 30 min preincubation): 40.7 µg
- induced CF translocation in paired corneas, BAC vs NC-1059 (rabbit cornea; 30 minutes preincubation, FIG. 5B): begins to promote increased CF translocation after the three-hour test point
- concentration above which BAC causes cellular damage (corneal epithelium [2]): greater than 0.005%

Compound: ZOT: zonula occludens toxin of Vibrio cholerae, 399 a.a.
- onset of effects [3]: < 20 min

Compound: Sodium Carboxy Fluorescein [NaF]
- net amount of NaF taken up in eyes relative to CF dye (corneal epithelium [4]): 7.8 fold

Compound: KKKKAARVGLGITTVLVTTIGLGVRAA [NC-1059]
- corneal epithelial morphology by EM (corneal epithelium [1]): normal healthy epithelial morphology
